In the assay the test system is N. gonorrhoeae F62 ΔIgtD. Nature of the assay: Flow cytometry for factor H binding to bacteria. It counts as cell-based. Also noted: key to fH binding: minimal: compared to unsialylated gonococci. The note with it: for fH binding facilitated by CMP-Neu5Ac: analogue added within 2 min of CMP-Neu5Ac 20 μg/ml. The protocol:
FIG. 3. Effects of LOS modification with various nonulosonate analogues on fH binding to N. gonorrhoeae. N. gonorrhoeae F62 ΔIgtD was grown in media alone, or media supplemented with 20 μg/ml (˜30 μM) of each of the indicated CMP-nonulosonates. Binding of bacteria to fH (10 μg/ml) was measured by flow cytometry using polyclonal goat anti-human fH. The control indicates reaction mixtures that lacked fH. Y-axis, median fluorescence of fH binding. The mean (SD) of 2 independent repeats is shown.
FIG. 7. […] A. N. gonorrhoeae F62 ΔIgtD was incubated in media containing CMP-Neu5Ac (20 μg/ml), followed […] by the addition of either CMP-Neu5Ac9Az or CMP-Leg5Ac7Ac (20, 2 or 0.2 μg/ml). Bacteria were grown for 2 h and fH binding detected by FACS using polyclonal goat anti-human fH. The Y-axis represents median fluorescence. The mean (SEM) of two independent observations is shown. B. Development of serum resistance lags behind fH binding when measured as a function of time of exposure of bacteria to CMP-Neu5Ac. CMP-Neu5Ac (20 μg/ml) was added to media containing F62 ΔIgtD and bacteria were taken at the time points indicated on the X-axis and assayed for fH binding by FACS with anti-fH mAb 90× (left Y-axis; median fluorescence (SEM)), or tested for its ability to resist killing by 10% NHS (right Y-axis; percent survival). The data represent 2-3 independent experiments. C. Representative histograms of a fH binding FACS experiment.
The addition of a terminal Neu5Ac residue to LNT-expressing LOS enhances binding of the alternative pathway inhibitor, factor H, which contributes to the ability of sialylated gonococci to resist killing by complement (7). fH binding to N. gonorrhoeae F62 ΔIgtD grown in the presence of each of the CMP-nonulosonates (20 μg/ml or 30 μM) was examined (FIG. 3). […] Reducing the CMP-nonulosonate concentrations in growth media to 2 μg/ml (3 μM) yielded similar fH binding results (FIG. 9B). Further, modification of LOS with Neu5Ac or Neu5Gc yielded similar amounts of fH binding over CMP-sialic acid concentrations ranging from 0.5 to 4 μg/ml, with near maximal fH binding observed even at the lowest concentration tested (FIG. 9C).
fH binding to bacteria was performed using flow cytometry as described previously (14). Briefly, bacteria (F62 ΔIgtD) were harvested from chocolate agar plates and grown in liquid media that contained the specified concentration of the CMP-nonulosonate as described above. Bacteria were then washed with Hanks Balanced Salt Solution (HBSS) containing 1 mM Ca^2+ and 1 mM Mg^2+ (HBSS^++) and incubated with fH purified from human plasma (Complement Technology, Inc.; concentration specified for each experiment). Bound fH was detected using either anti-fH mAb (Quidel, catalog no. A254 (mAb 90×)) or goat anti-human fH, followed by FITC conjugated anti-mouse IgG or anti-goat IgG, respectively (Sigma); both Abs had similar performance characteristics. All reaction mixtures were carried out in HBSS^++/1% BSA in a final volume of 50 μl. Flow cytometry was performed using a FACSCalibur instrument (Becton Dickinson) and data were analyzed using FlowJo (version 7.2.5; Tree Star, Inc.).
In general terms: Flow cytometry measures light scatter and fluorescence of single cells or particles in a stream.

The mark [1] stands for this setting: CMP-nonulosonate 20 μg/ml or 30 μM, vs unsialylated F62 ΔIgtD.

The values below come from US10865222B2, “Neisseria gonorrhoeae therapeutic based on CMP-nonulosonate sugars” (priority 2014, dated 2020).

For the molecule `CC(=O)NC1C(O)CC(OP(=O)(O)OCC2OC(n3ccc(N)nc3=O)C(O)C2O)(C(=O)O)OC1C(O)C(O)CO` [CMP-Neu5Ac, CMP-5-acetamido-3,5-dideoxy-D-glycero-D-galacto-nonulosonic acid, reference compound], the “fH binding as function of time of exposure” value was “barely any fH binding above control levels” (CMP-Neu5Ac 20 μg/ml, 2 min) and “near maximal binding” (CMP-Neu5Ac 20 μg/ml, by 32 min). Moreover, the “fH binding, % of maximal binding” value (CMP-Neu5Ac 20 μg/ml, by 16 min) was roughly 70%. Further, the fH binding entry reads like this: under setting [1], “Maximal”; (CMP-sialic acid 0.5 to 4 μg/ml, lowest concentration tested) “near maximal”; (summary Table 1) “high”.
On to `CC(=O)N[C@H]1[C@H]([C@H](O)[C@H](O)COC(C)=O)OC(OP(=O)(O)OC[C@H]2O[C@@H](n3ccc(N)nc3=O)[C@H](O)[C@@H]2O)(C(=O)O)C[C@@H]1O` (stereo partly drawn) [CMP-Neu5Ac9Ac, CMP-5-acetamido-9-O-acetyl-3,5-dideoxy-D-glycero-D-galacto-nonulosonic acid], for which the fH binding result is, setting by setting: under setting [1], “intermediate”; (summary Table 1) “intermediate”.
On to `COC(CO)C(O)C1OC(OP(=O)(O)OCC2OC(n3ccc(N)nc3=O)C(O)C2O)(C(=O)O)CC(O)C1NC(=O)CO` [CMP-Neu5Gc8Me, CMP-5-hydroxyacetamido-8-O-methyl-3,5-dideoxy-D-glycero-D-galacto-nonulosonic acid], for which the fH binding result (summary Table 1) is on record as “minimal”.
With “5,7-diacetamido-3,5,7,9-tetradeoxy-D-glycero-D-galacto-nonulosonic acid [CMP-Leg5Ac7Ac]”, the “fH binding facilitated by CMP-Neu5Ac” value is on record as “did not interfere with fH binding”. For the same molecule, the fH binding entry (summary Table 1) is reported as “minimal”.
As for `CC(=O)N[C@H]1[C@H]([C@H](O)[C@H](O)CN=[N+]=[N-])OC(OP(=O)(O)OC[C@H]2O[C@@H](n3ccc(N)nc3=O)[C@H](O)[C@@H]2O)(C(=O)O)C[C@@H]1O` (stereo partly drawn) [CMP-Neu5Ac9Az, CMP-5-acetamido-9-azido-3,5,9-trideoxy-D-glycero-D-galacto-nonulosonic acid], the “fH binding facilitated by CMP-Neu5Ac” value was “did not interfere with fH binding”. Further, the fH binding entry (summary Table 1) was “minimal^A”.
